Laboratory results reported in patent US6841519B1, “Isoxazoline derivatives and herbicides containing the same as the active ingredient” (Kumiai Chemical Industry Co., Ltd., priority 1999, dated 2005).

What was measured:
Type in all cases: in vivo
[1] = tested on: Echinochloa oryzicola Vasing. (Eo); assay: Test for herbicidal effect by paddy field soil treatment (Test Example 1); conditions: application amount (active ingredient) 100 g/10 a, examined at the 21st day from the treatment, index per Table 40
Summary of the method: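 Eo seeds sown in puddled paddy soil under 3 cm water; next day a water-diluted wettable powder was dropped onto the water surface at 100 g active ingredient per 10 ares. Herbicidal effect scored on a standard scale 21 days after treatment, greenhouse-grown.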

[2] = tested on: Echinochloa crus-galli (L.) Beauv. var. crusgall (Ec); assay: Test for herbicidal effect by upland field soil treatment (Test Example 2), Ec; conditions: 100 g/10 a active ingredient, examined at 21st day
Summary of the method: (§1)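 Echinochloa crus-galli and Setaria viridis were sown in upland field soil and covered, then the soil surface was sprayed with water-diluted wettable powder at 100 g active ingredient per 10 ares (100 liters per 10 ares). Plants were grown in a greenhouse and scored on a standard scale on day 21.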

[3] = tested on: Setaria viridis (L.) Beauv. (Se); assay: Test for herbicidal effect by upland field soil treatment (Test Example 2), Se; conditions: 100 g/10 a active ingredient, examined at 21st day
Summary of the method: as §1

[4] = tested on: Echinochloa crus-galli (L.) Beauv. var. crusgalli (Ec); assay: Test for herbicidal effect by upland foliage treatment (Test Example 3); conditions: 100 g/10 a active ingredient, examined at 14th day
Summary of the method: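 Potted upland-soil Ec seedlings grown 2 weeks in greenhouse, then foliage-sprayed with water-diluted wettable powder at 100 L per 10 ares, giving 100 g active ingredient per 10 ares. Herbicidal effect scored on a graded standard 14 days after treatment.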

| Compound | Herbicidal effect to Eo [1] | Herbicidal effect to Ec [2] | Herbicidal effect to Se [3] | Herbicidal effect to Ec [4] |
| --- | --- | --- | --- | --- |
| CC1(C)CC(S(=O)(=O)Cc2cc(C(F)(F)F)ccc2C(F)(F)F)=NO1 [Compound 1-544] | 5 (A herbicidal effect or phytotoxicity of 90% or more) | 5 (A herbicidal effect or phytotoxicity of 90% or more) | 5 (A herbicidal effect or phytotoxicity of 90% or more) | 5 (A herbicidal effect or phytotoxicity of 90% or more) |
| CC1(C)CC(S(=O)(=O)Cc2cc(Br)cc(Br)c2)=NO1 [Compound 1-545] | 5 (A herbicidal effect or phytotoxicity of 90% or more) | 5 (A herbicidal effect or phytotoxicity of 90% or more) | 5 (A herbicidal effect or phytotoxicity of 90% or more) | 5 (A herbicidal effect or phytotoxicity of 90% or more) |
| CC1(C)CC(S(=O)(=O)Cc2c(F)cccc2I)=NO1 [Compound 1-548] | 5 (A herbicidal effect or phytotoxicity of 90% or more) | 5 (A herbicidal effect or phytotoxicity of 90% or more) | 5 (A herbicidal effect or phytotoxicity of 90% or more) | 5 (A herbicidal effect or phytotoxicity of 90% or more) |
| Cc1ccc(F)c(CS(=O)(=O)C2=NOC(C)(C)C2)c1F [Compound 1-550] | 5 (A herbicidal effect or phytotoxicity of 90% or more) | 5 (A herbicidal effect or phytotoxicity of 90% or more) | 5 (A herbicidal effect or phytotoxicity of 90% or more) | 5 (A herbicidal effect or phytotoxicity of 90% or more) |
| CCCc1cccc(F)c1CS(=O)(=O)C1=NOC(C)(C)C1 [Compound 1-553] | 5 (A herbicidal effect or phytotoxicity of 90% or more) | 5 (A herbicidal effect or phytotoxicity of 90% or more) | 5 (A herbicidal effect or phytotoxicity of 90% or more) | 5 (A herbicidal effect or phytotoxicity of 90% or more) |
| CC1(C)CC(S(=O)(=O)Cc2c(Br)cccc2Br)=NO1 [Compound 1-554] | 5 (A herbicidal effect or phytotoxicity of 90% or more) | 5 (A herbicidal effect or phytotoxicity of 90% or more) | 5 (A herbicidal effect or phytotoxicity of 90% or more) | 5 (A herbicidal effect or phytotoxicity of 90% or more) |
| C#CCOc1ccccc1CS(=O)(=O)C1=NOC(C)(C)C1 [Compound 1-559] | 5 (A herbicidal effect or phytotoxicity of 90% or more) | 5 (A herbicidal effect or phytotoxicity of 90% or more) | 5 (A herbicidal effect or phytotoxicity of 90% or more) | 5 (A herbicidal effect or phytotoxicity of 90% or more) |
| Cc1cccc(Cl)c1CS(=O)(=O)C1=NOC(C)(C)C1 [Compound 1-560] | 5 (A herbicidal effect or phytotoxicity of 90% or more) | 5 (A herbicidal effect or phytotoxicity of 90% or more) | 5 (A herbicidal effect or phytotoxicity of 90% or more) | 4 (A herbicidal effect or phytotoxicity of 70% to less than 90%) |
| CC1(C)CC(S(=O)(=O)Cc2c(Cl)cccc2OC(F)F)=NO1 [Compound 1-561] | 5 (A herbicidal effect or phytotoxicity of 90% or more) | 5 (A herbicidal effect or phytotoxicity of 90% or more) | 5 (A herbicidal effect or phytotoxicity of 90% or more) | 4 (A herbicidal effect or phytotoxicity of 70% to less than 90%) |
| CC1(C2CC2)CC(S(=O)(=O)Cc2ccccc2OC(F)F)=NO1 (centres unmarked) [Compound 1-562] | 5 (A herbicidal effect or phytotoxicity of 90% or more) | 5 (A herbicidal effect or phytotoxicity of 90% or more) | 5 (A herbicidal effect or phytotoxicity of 90% or more) | 4 (A herbicidal effect or phytotoxicity of 70% to less than 90%) |
| COc1cccc(Cl)c1CS(=O)(=O)C1=NOC(C)(C)C1 [Compound 1-563] | 5 (A herbicidal effect or phytotoxicity of 90% or more) | 5 (A herbicidal effect or phytotoxicity of 90% or more) | 5 (A herbicidal effect or phytotoxicity of 90% or more) | 4 (A herbicidal effect or phytotoxicity of 70% to less than 90%) |
| CCOc1cccc(Cl)c1CS(=O)(=O)C1=NOC(C)(C)C1 [Compound 1-564] | 5 (A herbicidal effect or phytotoxicity of 90% or more) | 5 (A herbicidal effect or phytotoxicity of 90% or more) | 5 (A herbicidal effect or phytotoxicity of 90% or more) | 4 (A herbicidal effect or phytotoxicity of 70% to less than 90%) |
| CCCOc1cccc(Cl)c1CS(=O)(=O)C1=NOC(C)(C)C1 [Compound 1-565] | 5 (A herbicidal effect or phytotoxicity of 90% or more) | 5 (A herbicidal effect or phytotoxicity of 90% or more) | 5 (A herbicidal effect or phytotoxicity of 90% or more) | 4 (A herbicidal effect or phytotoxicity of 70% to less than 90%) |
| CC(C)Oc1cccc(Cl)c1CS(=O)(=O)C1=NOC(C)(C)C1 [Compound 1-566] | 5 (A herbicidal effect or phytotoxicity of 90% or more) | 5 (A herbicidal effect or phytotoxicity of 90% or more) | 5 (A herbicidal effect or phytotoxicity of 90% or more) | 4 (A herbicidal effect or phytotoxicity of 70% to less than 90%) |
| CCCCOc1ccccc1CS(=O)(=O)C1=NOC(C)(C)C1 [Compound 1-568] | 5 (A herbicidal effect or phytotoxicity of 90% or more) | 5 (A herbicidal effect or phytotoxicity of 90% or more) | 5 (A herbicidal effect or phytotoxicity of 90% or more) | 5 (A herbicidal effect or phytotoxicity of 90% or more) |
| CCCOc1cccc(F)c1CS(=O)(=O)C1=NOC(C)(C)C1 [Compound 1-569] | 5 (A herbicidal effect or phytotoxicity of 90% or more) | 5 (A herbicidal effect or phytotoxicity of 90% or more) | 5 (A herbicidal effect or phytotoxicity of 90% or more) | 5 (A herbicidal effect or phytotoxicity of 90% or more) |
| CC(C)Oc1cccc(F)c1CS(=O)(=O)C1=NOC(C)(C)C1 [Compound 1-570] | 5 (A herbicidal effect or phytotoxicity of 90% or more) | 5 (A herbicidal effect or phytotoxicity of 90% or more) | 5 (A herbicidal effect or phytotoxicity of 90% or more) | 5 (A herbicidal effect or phytotoxicity of 90% or more) |
| CC(C)COc1cccc(Cl)c1CS(=O)(=O)C1=NOC(C)(C)C1 [Compound 1-572] | 5 (A herbicidal effect or phytotoxicity of 90% or more) | 5 (A herbicidal effect or phytotoxicity of 90% or more) | 5 (A herbicidal effect or phytotoxicity of 90% or more) | 4 (A herbicidal effect or phytotoxicity of 70% to less than 90%) |
| C#CCOc1cccc(F)c1CS(=O)(=O)C1=NOC(C)(C)C1 [Compound 1-576] | 5 (A herbicidal effect or phytotoxicity of 90% or more) | 5 (A herbicidal effect or phytotoxicity of 90% or more) | 5 (A herbicidal effect or phytotoxicity of 90% or more) | 5 (A herbicidal effect or phytotoxicity of 90% or more) |
| CC(c1ccccc1)S(=O)(=O)C1=NOC(C)(C)C1 (centres unmarked) [Compound 1-581] | 5 (A herbicidal effect or phytotoxicity of 90% or more) | 5 (A herbicidal effect or phytotoxicity of 90% or more) | 5 (A herbicidal effect or phytotoxicity of 90% or more) | 4 (A herbicidal effect or phytotoxicity of 70% to less than 90%) |
